Measured values as given in the NIST ThermoML archive (doi:10.1016/j.jct.2005.03.020).

What was measured:
[1] = 298.15 K; 101.33 kPa; Liquid
[2] = refractive index (Na D-line) (dimensionless); conditions: 298.15 K; 101.33 kPa; Liquid; Standard Abbe refractometry
[3] = excess molar enthalpy (molar enthalpy of mixing); xn = mol fraction of the nth substance listed; conditions: 298.15 K, 101.33 kPa, Liquid
[4] = xn = mol fraction of the nth substance listed; conditions: 298.15 K, 101.33 kPa, Liquid

CCOC=O [ethyl methanoate]
Conditions	mass density [kg/m3]	refractive index
[1]	914.17	–
[2]	–	1.358

CCOC(=O)CC [ethyl propanoate]
Conditions	mass density [kg/m3]	refractive index
[1]	884.02	–
[2]	–	1.3815

ClCCCCCl [1,4-dichlorobutane] + CCCC(=O)OCC
Conditions	excess molar enthalpy, [3] [kJ/mol]	mass density, [4] [kg/m3]
x2 = 0.0516	-0.021	1117.97
x2 = 0.1009	–	1103.15
x2 = 0.1108	-0.0531	–
x2 = 0.1531	–	1087.78
x2 = 0.172	-0.087	–
x2 = 0.2042	–	1072.99
x2 = 0.2328	-0.124	–
x2 = 0.2583	–	1057.63
x2 = 0.2891	-0.166	–
x2 = 0.3128	–	1042.49
x2 = 0.3455	-0.195	–
x2 = 0.3701	–	1026.87
x2 = 0.3976	-0.222	–
x2 = 0.4267	–	1011.74
x2 = 0.4477	-0.242	–
x2 = 0.4757	-0.25	–
x2 = 0.5265	-0.258	–
x2 = 0.5437	–	981.4
x2 = 0.5821	-0.257	–
x2 = 0.6058	–	965.8
x2 = 0.6443	-0.25	–
x2 = 0.6681	–	950.44
x2 = 0.7111	-0.232	–
x2 = 0.7293	–	935.66
x2 = 0.7821	-0.196	–
x2 = 0.8567	-0.143	–
x2 = 0.8601	–	905.05
x2 = 0.9259	–	890.1
x2 = 0.9323	-0.0789	–

ClCCCCCCl [1,5-dichloropentane]
Conditions	mass density [kg/m3]	refractive index
[1]	1095.27	–
[2]	–	1.454

ClCCCCCl [1,4-dichlorobutane]
Conditions	mass density [kg/m3]	refractive index
[1]	1133.32	–
[2]	–	1.452

ClCCCCCCl [1,5-dichloropentane] + CCCC(=O)OCC
Conditions	excess molar enthalpy [kJ/mol]	mass density [kg/m3]
[3], x2 = 0.0571	-0.0082	–
[3], x2 = 0.1213	-0.0269	–
[3], x2 = 0.1884	-0.0501	–
[3], x2 = 0.2532	-0.0738	–
[3], x2 = 0.3155	-0.0983	–
[3], x2 = 0.3746	-0.124	–
[3], x2 = 0.4289	-0.151	–
[3], x2 = 0.478	-0.174	–
[3], x2 = 0.5235	-0.185	–
[3], x2 = 0.5576	-0.191	–
[3], x2 = 0.5639	-0.192	–
[3], x2 = 0.6129	-0.193	–
[3], x2 = 0.6726	-0.188	–
[3], x2 = 0.736	-0.168	–
[3], x2 = 0.8047	-0.138	–
[3], x2 = 0.8728	-0.0986	–
[3], x2 = 0.9406	-0.0475	–
[4], x2 = 0.0569	–	1082.35
[4], x2 = 0.1136	–	1069.48
[4], x2 = 0.171	–	1056.53
[4], x2 = 0.2286	–	1043.61
[4], x2 = 0.2917	–	1029.5
[4], x2 = 0.3489	–	1016.71
[4], x2 = 0.4084	–	1003.45
[4], x2 = 0.4653	–	990.76
[4], x2 = 0.5243	–	977.72
[4], x2 = 0.5825	–	964.82
[4], x2 = 0.6411	–	951.9
[4], x2 = 0.7595	–	925.89
[4], x2 = 0.8188	–	912.92
[4], x2 = 0.8799	–	899.6
[4], x2 = 0.9403	–	886.46

ClCCCCl [1,3-dichloropropane]
Conditions	mass density [kg/m3]	refractive index
[1]	1178.34	–
[2]	–	1.4455

CCCC(=O)OCC [ethyl butanoate] + ClCCCl
Conditions	excess molar enthalpy [kJ/mol]	mass density [kg/m3]
[3], x1 = 0.0372	-0.024	–
[3], x1 = 0.0865	-0.0668	–
[3], x1 = 0.1386	-0.122	–
[3], x1 = 0.1921	-0.182	–
[3], x1 = 0.2431	-0.246	–
[3], x1 = 0.2939	-0.308	–
[3], x1 = 0.3419	-0.361	–
[3], x1 = 0.388	-0.409	–
[3], x1 = 0.4274	-0.441	–
[3], x1 = 0.4838	-0.456	–
[3], x1 = 0.5489	-0.459	–
[3], x1 = 0.5825	-0.451	–
[3], x1 = 0.6236	-0.435	–
[3], x1 = 0.7068	-0.379	–
[3], x1 = 0.7989	-0.285	–
[3], x1 = 0.8971	-0.17	–
[3], x1 = 0.9325	-0.122	–
[4], x1 = 0.0378	–	1221.95
[4], x1 = 0.075	–	1199.86
[4], x1 = 0.1149	–	1177.55
[4], x1 = 0.1568	–	1155.49
[4], x1 = 0.198	–	1134.78
[4], x1 = 0.2425	–	1113.63
[4], x1 = 0.2957	–	1089.91
[4], x1 = 0.3476	–	1068.19
[4], x1 = 0.4019	–	1046.72
[4], x1 = 0.46	–	1025.2
[4], x1 = 0.5234	–	1003.08
[4], x1 = 0.5887	–	981.85
[4], x1 = 0.6583	–	960.62
[4], x1 = 0.7338	–	939.07
[4], x1 = 0.8138	–	917.85
[4], x1 = 0.9027	–	895.87

ClCCCCCCCl [1,6-dichlorohexane] + CCOC(C)=O
Conditions	excess molar enthalpy [kJ/mol]	mass density [kg/m3]
[3], x2 = 0.0931	0.0324	–
[3], x2 = 0.1859	0.053	–
[3], x2 = 0.2737	0.073	–
[3], x2 = 0.3572	0.0826	–
[3], x2 = 0.4323	0.0759	–
[3], x2 = 0.4967	0.0625	–
[3], x2 = 0.5544	0.0421	–
[3], x2 = 0.6025	0.0316	–
[3], x2 = 0.6355	0.0226	–
[3], x2 = 0.7013	0.0133	–
[3], x2 = 0.769	0.0044	–
[3], x2 = 0.8355	-0.0095	–
[3], x2 = 0.9006	-0.0152	–
[3], x2 = 0.9593	-0.0068	–
[4], x2 = 0.0827	–	1053.91
[4], x2 = 0.164	–	1043.7
[4], x2 = 0.2386	–	1033.83
[4], x2 = 0.3112	–	1023.72
[4], x2 = 0.3783	–	1013.89
[4], x2 = 0.4437	–	1003.86
[4], x2 = 0.5071	–	993.65
[4], x2 = 0.5654	–	983.86
[4], x2 = 0.6221	–	973.92
[4], x2 = 0.6754	–	964.14
[4], x2 = 0.7291	–	953.86
[4], x2 = 0.7774	–	944.24
[4], x2 = 0.824	–	934.61
[4], x2 = 0.8726	–	924.1
[4], x2 = 0.9134	–	914.94
[4], x2 = 0.9552	–	905.22

ClCCCl [1,2-dichloroethane]
Conditions	mass density [kg/m3]	refractive index
[1]	1245.65	–
[2]	–	1.442

CCCCC(=O)OCC [ethyl pentanoate]
Conditions	mass density [kg/m3]	refractive index
[1]	869.42	–
[2]	–	1.398

CCOC(C)=O [ethyl acetate]
Conditions	mass density [kg/m3]	refractive index
[1]	894.33	–
[2]	–	1.3692

ClCCCCCCCl [1,6-dichlorohexane]
Conditions	mass density [kg/m3]	refractive index
[1]	1063.72	–
[2]	–	1.4555

ClCCCCCl [1,4-dichlorobutane] + CCOC(C)=O
Conditions	excess molar enthalpy [kJ/mol]	mass density [kg/m3]
[3], x2 = 0.0692	-0.0084	–
[3], x2 = 0.1414	-0.0198	–
[3], x2 = 0.2133	-0.0355	–
[3], x2 = 0.2818	-0.0549	–
[3], x2 = 0.347	-0.0759	–
[3], x2 = 0.4035	-0.0968	–
[3], x2 = 0.4514	-0.115	–
[3], x2 = 0.4919	-0.129	–
[3], x2 = 0.5264	-0.142	–
[3], x2 = 0.5571	-0.152	–
[3], x2 = 0.5836	-0.161	–
[3], x2 = 0.6072	-0.169	–
[3], x2 = 0.6278	-0.173	–
[3], x2 = 0.6525	-0.177	–
[3], x2 = 0.7106	-0.163	–
[3], x2 = 0.7719	-0.144	–
[3], x2 = 0.8337	-0.115	–
[3], x2 = 0.8915	-0.0806	–
[3], x2 = 0.9475	-0.0417	–
[4], x2 = 0.0693	–	1118.08
[4], x2 = 0.1314	–	1104.46
[4], x2 = 0.1955	–	1090.4
[4], x2 = 0.2579	–	1076.44
[4], x2 = 0.3205	–	1062.24
[4], x2 = 0.3812	–	1048.26
[4], x2 = 0.442	–	1034.12
[4], x2 = 0.5019	–	1019.95
[4], x2 = 0.5602	–	1006.01
[4], x2 = 0.6172	–	992.21
[4], x2 = 0.6757	–	977.84
[4], x2 = 0.7842	–	950.68
[4], x2 = 0.8386	–	936.74
[4], x2 = 0.8929	–	922.7
[4], x2 = 0.9453	–	908.9

CCCC(=O)OCC [ethyl butanoate]
Conditions	mass density [kg/m3]	refractive index
[1]	873.54	–
[2]	–	1.3895
